Laboratory results published in patent US9561231B2 (AbbVie Inc., priority 2012, dated 2017).

Experiments:
[1] = biological target: T1, second (BD2: amino acids E352-E168) bromodomain of BRD4 (Homo sapiens, UniProt O60885); experiment: TR-FRET bromodomain binding assay, BRD4 BD2; settings: TR-FRET assay protocol (A-G, compound concentration range); Ki calculated from IC50, probe Kd and probe concentration; read-out: TR-FRET Binding Ki: BRD4 (BDII_E352-M457)
T1 construct: protocol
Method in brief: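 His-tagged BRD4 BD1 (K57-E168) or BD2 ([…]) displacing an Alexa647-labelled BET-inhibitor probe in 20 mM sodium phosphate pH 6.0, 50 mM NaCl, 1 mM EDTA, 0.01% Triton X-100, 1 mM DTT.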

DLD-1 = experiment: Proliferation panel assay: DLD-1; assay type: cell-based; settings: Homo sapiens, 120 h; DLD-1 (Colon); 5 days, Cell Titer Glo; read-out: Cellular Proliferation EC50
FaDu = experiment: Proliferation panel assay: FaDu; assay type: cell-based; settings: Homo sapiens, 120 h; FaDu (Head & Neck); 5 days, Cell Titer Glo; read-out: Cellular Proliferation EC50
Ly18 = experiment: Proliferation panel assay: Ly18; assay type: cell-based; settings: 120 h; Ly18 (NHL); 5 days, Cell Titer Glo; read-out: Cellular Proliferation EC50
Ramos = experiment: Proliferation panel assay: Ramos; assay type: cell-based; settings: Homo sapiens, 120 h; Ramos (NHL); 5 days, Cell Titer Glo; read-out: Cellular Proliferation EC50
H1299 = experiment: Proliferation panel assay: H1299; assay type: cell-based; settings: Homo sapiens, NCI-H1299, 120 h; H1299 (NSCLC); 5 days, Cell Titer Glo; read-out: Cellular Proliferation EC50
BxPC3FP5 = experiment: Proliferation panel assay: BxPC3FP5; assay type: cell-based; settings: 120 h; BxPC3FP5 (Pancreas); 5 days, Cell Titer Glo; read-out: Cellular Proliferation EC50
786-0 = experiment: Proliferation panel assay: 786-0; assay type: cell-based; settings: Homo sapiens, 120 h; 786-0 (RCC); 5 days, Cell Titer Glo; read-out: Cellular Proliferation EC50
SK-LMS-1 = experiment: Proliferation panel assay: SK-LMS-1; assay type: cell-based; settings: Homo sapiens, 120 h; SK-LMS-1 (Sarcoma); 5 days, Cell Titer Glo; read-out: Cellular Proliferation EC50
[2] = tested on: LPS induced IL-6 production; experiment: LPS (lipopolysaccharide) induced IL-6 production mouse assay; settings: 30 mg/kg oral, 1 h before LPS 2.5 mg/kg i.p.; serum IL-6 2 h after LPS; p<0.05

Ki [1] | EC50 (DLD-1) | EC50 (Ramos) | EC50 (H1299) | EC50 (BxPC3FP5) | EC50 (786-0) | EC50 (SK-LMS-1) | Structure (SMILES) | EC50 (FaDu) | EC50 (Ly18) | Inhibition of LPS induced IL-6 production, % inhibition [2]
113 nM | 850 nM | 370 nM | 750 nM | 230 nM | 273 nM | 448 nM | Cn1cc(-c2cc(NS(C)(=O)=O)ccc2Oc2ccccc2)ccc1=O [Example 224, N-[3-(1-methyl-6-oxo-1,6-dihydropyridin-3-yl)-4-phenoxyphenyl]methanesulfonamide] | 280 nM | 520 nM | 
66.4 nM | 620 nM | 390 nM | 740 nM | 230 nM | 250 nM | 348 nM | Cc1cc(-c2cc(NS(C)(=O)=O)ccc2Oc2ccccc2)c[nH]c1=O [Example 261, N-[3-(5-methyl-6-oxo-1,6-dihydropyridin-3-yl)-4-phenoxyphenyl]methanesulfonamide] | 270 nM | 510 nM | 42.2 @ 30 mg/kg %
